Reference: patent publication US8722868B2, “Glycosyltransferase, novel glycosyltransferase gene, and novel sugar donor compound” (National University Corporation Tokyo University of …, priority 2009, dated 2014)

Experiments:
[1] = molecular target: T1, crude enzyme obtained from pink petals of a carnation (variety: "Beam Cherry") (glycosyltransferase) (Dianthus caryophyllus, UniProt E3W9M2); assay: Relative activity of crude carnation petal enzyme on each sugar donor (glycosyl transfer to cyanidin 3-glucoside, HPLC); type: biochemical; details: crude enzyme 61 μg, cyanidin β-glucoside 200 μM, sugar donor 500 μM, citric acid buffer pH 5.6, 30° C., 15 minutes; HPLC area of cyanidin 3,5-O-β diglucoside
T1 construct: Thus, a crude enzyme liquid was obtained; from tissue; host or cells: pink petals of carnation, variety Beam Cherry (ammonium sulfate precipitate, desalted)
T1 sequence (E3W9M2 31-502): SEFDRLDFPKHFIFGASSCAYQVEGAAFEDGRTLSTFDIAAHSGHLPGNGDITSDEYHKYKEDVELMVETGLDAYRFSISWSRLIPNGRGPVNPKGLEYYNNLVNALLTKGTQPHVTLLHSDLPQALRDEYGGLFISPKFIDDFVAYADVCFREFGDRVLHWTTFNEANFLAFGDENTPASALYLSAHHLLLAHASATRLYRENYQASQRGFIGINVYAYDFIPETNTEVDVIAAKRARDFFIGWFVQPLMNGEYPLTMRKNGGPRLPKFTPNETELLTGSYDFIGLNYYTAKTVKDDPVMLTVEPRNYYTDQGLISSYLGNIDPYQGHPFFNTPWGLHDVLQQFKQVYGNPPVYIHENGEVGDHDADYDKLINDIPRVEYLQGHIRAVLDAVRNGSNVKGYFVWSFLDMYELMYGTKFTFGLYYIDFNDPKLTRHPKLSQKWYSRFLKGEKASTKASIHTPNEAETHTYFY
Protocol: An enzyme reaction was carried out at 30° C. for 15 minutes in a reaction solution obtained by adding a citric acid buffer (pH 5.6) to a crude enzyme obtained from pink petals of a carnation (variety: “Beam Cherry”) (61 μg), cyanidin β-glucoside (200 μM), and a sugar donor (1-O-β-vanillyl glucose extracted from a carnation or any of synthesized 1-O-vanillyl glucose (in the α or β form), 1-O-isovanillyl glucose (in the α or β form), and 1-O-galloyl glucose (in the α or β form)) (500 μM) to a final volume of 30 μl. The reaction was terminated by adding a 20% phosphoric acid aqueous solution to the reaction liquid so as to result in a final phosphoric acid concentration of 1%, followed by centrifugation. The obtained supernatant was subjected to separation using an HPLC (Chromolith Speed ROD; 4.6×50 mm; Merck) with a linear gradient (5 minutes) of 18% to 28% liquid B containing eluent A (a 1.5% phosphoric acid aqueous solution) and eluent B (a 90% methanol aqueous solution) (flow rate: 3.0 ml/min; 520 nm), followed by analysis. The relative activity of the enzyme on each sugar donor was calculated based on the HPLC chromatogram area of a reaction product (cyanidin 3,5-O-β diglucoside) at a wavelength of 505 nm.

[2] = molecular target: T2, enzyme purified from pink petals of a carnation (variety: "Beam Cherry") (glycosyltransferase) (Dianthus caryophyllus, UniProt E3W9M2); assay: Relative activity of glycosyltransferase purified from carnation on each sugar donor (HPLC); type: biochemical; details: purified enzyme 135 ng, cyanidin 3-glucoside 200 μM, sugar donor 500 μM, citric acid buffer pH 5.6, 30° C., 15 minutes; HPLC area of cyanidin 3,5-O-β-diglucoside
T2 construct: the enzyme comprising 502 amino acid residues was translated, followed by amino acid removal via processing; from tissue; host or cells: petals of carnation, variety Beam Cherry
T2 sequence (E3W9M2 31-502): T1 sequence (E3W9M2 31-502)
Protocol: An enzyme reaction was carried out at 30° C. for 15 minutes using an enzyme (135 ng) purified from pink petals of a carnation (variety: “Beam Cherry”) by the method described in Example 2 ((1) and (2)), cyanidin 3-glucoside (200 μM), and a sugar donor (1-O-β-D-vanillyl glucose or any of 1-O-β-D-p-coumaryl glucose, 1-O-β-D-caffeyl glucose, 1-O-β-D-feruloyl glucose, and 1-O-β-D-sinapoyl glucose that had been enzymatically synthesized according to the method described in Matsuba Y et al., Plant Biotechnology vol. 25, No. 4 (2008) pp. 369-375) (500 μM) in a reaction solution adjusted to 30 μl with the addition of a citric acid buffer (pH 5.6). A 20% phosphoric acid aqueous solution was added to the reaction liquid so as to result in a final phosphoric acid concentration of 1%. Thus, the reaction was terminated, followed by centrifugation. The resulting supernatant was subjected to separation using a HPLC column (Chromolith SpeedROD, 4.6×50 mm, Merck), eluent A (a 1.5% phosphoric acid aqueous solution), and eluent B (a 90% methanol aqueous solution) with a linear gradient of 18% to 28% liquid B (flow rate: 3.0 ml/min, 520 nm) (5 minutes), followed by analysis. The relative activity of the enzyme on each sugar donor was determined by calculating the area of the reaction product (cyanidin 3,5-O-β-diglucoside) on an HPLC chromatogram at a wavelength of 505 nm.

| Compound | Relative activity of an enzyme on a sugar donor (when synthetic 1-O-β-vanillyl glucose is set as 100) [1] | Relative activity of an enzyme on a sugar donor (when synthetic 1-O-β-vanillyl glucose is set as 100) [2] |
| --- | --- | --- |
| 1-O-α-vanillyl glucose [1-O-α-vanillyl glucose (synthetic)] | 1.7 | – |
| COc1ccc(C(=O)O[C@H]2O[C@H](CO)[C@@H](O)[C@H](O)[C@H]2O)cc1O [1-O-α-isovanillyl glucose (synthetic), 1-O-α-isovanillyl glucose] | Not detectable | – |
| O=C(/C=C/c1ccc(O)c(O)c1)OC1OC(CO)C(O)C(O)C1O [1-O-β-D-caffeyl glucose (synthetic), 1-O-β-caffeyl glucose] | – | 464 |
| COc1cc(/C=C/C(=O)OC2OC(CO)C(O)C(O)C2O)ccc1O [1-O-β-D-feruloyl glucose (synthetic), 1-O-β-feruloyl glucose] | – | 1320 |
| O=C(/C=C/c1ccc(O)cc1)OC1OC(CO)C(O)C(O)C1O [1-O-β-D-p-coumaryl glucose (synthetic), 1-O-β-p-coumaryl glucose] | – | 350 |
| COc1cc(/C=C/C(=O)OC2OC(CO)C(O)C(O)C2O)cc(OC)c1O [1-O-β-D-sinapoyl glucose (synthetic), 1-O-β-sinapoyl glucose] | – | 793 |
| O=C(O[C@@H]1O[C@H](CO)[C@@H](O)[C@H](O)[C@H]1O)c1cc(O)c(O)c(O)c1 [1-O-β-galloyl glucose (synthetic), 1-O-β-galloyl glucose] | 2.4 | – |
| COc1ccc(C(=O)OC2OC(CO)C(O)C(O)C2O)cc1O (stereo not drawn) [1-O-β-isovanillyl glucose (synthetic), 1-O-β-isovanillyl glucose] | 23.1 | – |
